Measurements taken from US9642889B2, “Macrocyclic inhibitors of Flaviviridae viruses” (Selcia Limited, priority 2012, dated 2017).
Like-named read-outs stand apart in the source and are kept apart here.

Assays:
[1] = test system: Huh-7 HCV replicon cells (1b replicon); assay: anti-HCV activity in Huh-7 cell line harboring a HCV replicon (luciferase readout); format: cell-based; settings: for Replicon 1b % inhibition at 1 μM: 1b replicon, 1 μM compound
[2] = molecular target: cyclophilin A (Homo sapiens, UniProt P62937); assay: Cyclophilin A TR-FRET competitive binding assay; settings: competition with CsA-Cy5 for His-tagged CypA, two-hour incubation
cyclophilin A, sequence (P62937 whole entry, species assumed): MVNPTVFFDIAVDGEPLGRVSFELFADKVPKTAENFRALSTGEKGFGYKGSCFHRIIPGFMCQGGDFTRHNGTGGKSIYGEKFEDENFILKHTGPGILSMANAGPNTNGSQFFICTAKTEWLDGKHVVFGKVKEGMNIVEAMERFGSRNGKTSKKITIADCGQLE
Description: Cyclophilin A TR-FRET Competitive Binding Assay
Inhibitor potency was measured using a competitive binding assay with a time-resolved fluorescence resonance energy transfer (TR-FRET) readout. […] An IC50 value was calculated using a four-parameter logistic fit.

[3] = Hepatitis C virus, Huh-7, 72 h, inhibition of viral replication, Huh-7 HCV replicon cells, 3 days, read-out: EC50
[4] = Hepatitis C virus, Huh-7, read-out: Replicon 1b % inhibition at 1 μM, 1b replicon, 1 μM compound
[5] = Hepatitis C virus, Huh-7, read-out: Replicon 1b % inhibition at 1 μM

Structure (SMILES) | EC50 [1, 3] [nM] | inhibition at 1 µM [1, 4] [%] | EC50 ([1]; Hepatitis C virus, Huh-7, 72 h) [nM] | inhibition at 1 µM [1, 5] [%] | IC50 [2] [nM] | Replicon 1b % inhibition at 1 μM [1] [%] | EC50 ([1]; inhibition of viral replication, Huh-7 HCV replicon cells, 3 days, read-out: EC50) [nM]
CC(C)[C@@H]1OC(=O)C2(/C=C/c3ccc4ccc(nc4c3)[C@@H](C)NC(=O)[C@@H]3CCCN(N3)C(=O)[C@H](C)NC1=O)CCS(=O)(=O)CC2 [Compound 106] | < 1000 | 95 | – | – | – | – | –
C[C@@H]1NC(=O)[C@H](C2CCC2)OC(=O)C2(/C=C/c3ccc4ccc(nc4c3)[C@@H](C)NC(=O)[C@@H]3CCCN(N3)C1=O)COCOC2 [Compound 64] | – | – | < 1000 | 100 | – | – | –
CCN1CCOC2(/C=C/c3ccc4ccc(nc4c3)[C@@H](C)NC(=O)[C@@H]3CCCN(N3)C(=O)[C@H](C)NC(=O)[C@H](C(C)C)OC2=O)C1 (stereo partly drawn) [Compound 96] | – | – | < 1000 | 91 | < 100 | – | –
CC1NC(=O)C(C2CC2)OC(=O)C2(C=Cc3ccc4ccc(nc4c3)C(C)NC(=O)C3CCCN(N3)C1=O)CCC(O)C2 (single isomer, unassigned) [Compound 103] | < 1000 | – | – | – | < 100 | 90 | –
CC(C)[C@H]1C(=O)N[C@@H](C)C(=O)N2CCC[C@H](N2)C(=O)O[C@H](C)c2ccc3cnc(cc3c2)/C=C/C(C)(C)C(=O)N1C [Compound 22] | – | – | – | – | < 100 | – | –
CC(=O)O[C@H]1CC[C@@]2(/C=C/c3ccc4ccc(nc4c3)[C@@H](C)NC(=O)[C@@H]3CCCN(N3)C(=O)[C@H](C)NC(=O)[C@H](C(C)C)OC2=O)CC1 [Compound 110] | < 1000 | 100 | – | – | < 100 | – | –
C[C@@H]1NC(=O)[C@H](C2CCCC2)OC(=O)C2(/C=C/c3ccc4ccc(nc4c3)[C@@H](C)NC(=O)[C@@H]3CCCN(N3)C1=O)COCOC2 [Compound 63] | < 1000 | 100 | – | – | < 100 | – | –
CC1/C=C/c2ccc3ccc(nc3c2)[C@@H](C)NC(=O)[C@@H]2CCCN(N2)C(=O)[C@H](C)NC(=O)[C@H](C(C)C)OC1 (single isomer, unassigned) [Compound 34] | < 1000 | 91 | – | – | < 100 | – | –
C[C@@H]1NC(=O)[C@@H](C2CC2)OC(=O)C(C)(C)/C=C/c2ccc3ccc(nc3c2)[C@@H](C)NC(=O)[C@@H]2CCCN(N2)C1=O [Compound 79] | 1100 to 10000 | 3 | – | – | 1000 to 10000 | – | –
CC(C)[C@@H]1OC(=O)C2(/C=C/c3ccc4ccc(nc4c3)[C@@H](C)NC(=O)[C@@H]3CCCN(N3)C(=O)[C@H](C)NC1=O)CCCCO2 (mixture of isomers) [Compound 49] | < 1000 | 100 | – | – | < 100 | – | –
CC(C)[C@@H]1OC(=O)C2(/C=C/c3ccc4ccc(nc4c3)[C@@H](C)NC(=O)[C@@H]3CCCN(N3)C(=O)[C@H](C)NC1=O)CCN(S(C)(=O)=O)CC2 [Compound 85] | < 1000 | 98 | – | – | < 100 | – | –
C[C@@H]1NC(=O)[C@H](C2CC2)OC(=O)C2(/C=C/c3ccc4ccc(nc4c3)[C@@H](C)NC(=O)[C@@H]3CCCN(N3)C1=O)COCOC2 [Compound 53] | < 1000 | 99 | – | – | < 100 | – | –
CC(C)[C@@H]1OC(=O)CCc2ccc(cc2)-c2cccc(c2)[C@@H](C)NC(=O)[C@@H]2CCCN(N2)C(=O)[C@H](C)NC1=O [Compound 6] | < 1000 | 94 | – | – | < 100 | – | –
CC(C)[C@@H]1OC(=O)[C@@](C)(CO)/C=C/c2ccc3ccc(nc3c2)[C@@H](C)NC(=O)[C@@H]2CCCN(N2)C(=O)[C@H](C)NC1=O [Compound 29] | < 1000 | 99 | – | – | < 100 | – | –
CC(C)[C@@H]1OC(=O)C2(/C=C/c3ccc4ccc(nc4c3)[C@@H](C)NC(=O)[C@@H]3CCCN(N3)C(=O)[C@H](C)NC1=O)CCCOC2 (single isomer, unassigned) [Compound 50] | < 1000 | 100 | – | – | < 100 | – | –
CC1NC(=O)C(C2CC2)OC(=O)C2(C=Cc3ccc4ccc(nc4c3)C(C)NC(=O)C3CCCN(N3)C1=O)CCC(O)C2 (single isomer, unassigned) [Compound 104] | – | – | – | – | < 100 | 56 | < 1000
COC[C@@]1(C)/C=C/c2ccc3ccc(nc3c2)[C@@H](C)NC(=O)[C@@H]2CCCN(N2)C(=O)[C@H](C)NC(=O)[C@H](C(C)C)OC1=O [Compound 36] | – | – | – | – | < 100 | – | –
CC(C)[C@@H]1OC(=O)C(C)(C)/C=C/c2ccc3ccc(nc3c2)[C@@H](C)N(C)C(=O)[C@@H]2CCCN(N2)C(=O)[C@H](CO)NC1=O [Compound 41] | < 1000 | 98 | – | – | < 100 | – | –
C[C@@H]1NC(=O)[C@H]([C@@H](C)OC(C)(C)C)OC(=O)C(C)(C)/C=C/c2ccc3ccc(nc3c2)[C@@H](C)NC(=O)[C@@H]2CCCN(N2)C1=O [Compound 86] | < 1000 | 93 | – | – | 101 to 1000 | – | –
